These results are taken from ChEMBL document CHEMBL5154848, “Synthesis of heterocyclic ring-fused analogs of HMG499 as novel degraders of HMG-CoA reductase that lower cholesterol” (Eur J Med Chem, 2022).

By EC50 is commonly meant the concentration at which the effect is half-maximal. Read a low EC50 as greater potency.

Series [1] deals with T1, 3-hydroxy-3-methylglutaryl-coenzyme A reductase (Cricetulus griseus, UniProt P00347).
T1 sequence (P00347 whole entry): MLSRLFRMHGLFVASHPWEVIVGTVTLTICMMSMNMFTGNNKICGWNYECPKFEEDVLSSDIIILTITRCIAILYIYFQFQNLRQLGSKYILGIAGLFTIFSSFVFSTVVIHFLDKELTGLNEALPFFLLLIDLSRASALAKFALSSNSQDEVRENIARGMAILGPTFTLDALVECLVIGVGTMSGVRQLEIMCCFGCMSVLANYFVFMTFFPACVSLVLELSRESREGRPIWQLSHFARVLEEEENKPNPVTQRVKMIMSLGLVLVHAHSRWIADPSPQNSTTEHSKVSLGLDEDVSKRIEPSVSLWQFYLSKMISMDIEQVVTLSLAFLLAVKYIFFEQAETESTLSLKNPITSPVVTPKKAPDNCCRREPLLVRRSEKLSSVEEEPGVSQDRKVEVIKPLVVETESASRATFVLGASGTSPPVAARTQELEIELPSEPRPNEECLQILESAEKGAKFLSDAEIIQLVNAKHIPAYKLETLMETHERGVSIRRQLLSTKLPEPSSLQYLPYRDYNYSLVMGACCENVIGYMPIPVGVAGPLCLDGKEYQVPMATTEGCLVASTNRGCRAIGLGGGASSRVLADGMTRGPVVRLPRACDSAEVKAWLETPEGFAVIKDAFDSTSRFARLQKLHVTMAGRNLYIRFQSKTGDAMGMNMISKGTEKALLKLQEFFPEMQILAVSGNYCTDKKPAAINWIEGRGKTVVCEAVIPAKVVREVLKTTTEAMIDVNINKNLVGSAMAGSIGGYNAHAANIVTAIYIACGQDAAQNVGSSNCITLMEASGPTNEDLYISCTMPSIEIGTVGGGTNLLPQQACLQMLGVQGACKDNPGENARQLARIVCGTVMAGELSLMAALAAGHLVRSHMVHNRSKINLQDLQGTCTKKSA
Kind of series: Induction of degradation of hamster HMGCR (TM1-8)-GFP (1 to 346 residues) transfected in CHO-7 cells incubated for 16 hrs in sterol-depleted medium by fluorescence based microplate reader assay. In kind it is cell-based.

Series [2] can be described thus: Toxicity in human SV589 cells assessed as cholesterol accumulation in lysosome at 10 uM incubated for 16 hrs by immunofluorescence based confocal microscopy. In kind it is cell-based. The settings on record: sv-589, 16 h.

In series [1], `CCCNC(=O)CC[C@@H](C)[C@H]1CC[C@H]2[C@@H]3CC=C4C(C)(C)c5c(cnn5C(C)=O)C[C@]4(C)[C@H]3CC[C@]12C` had an EC50 of 2030 nM.

In series [1], `CC(=O)n1ncc2c1C(C)(C)C1=CC[C@H]3[C@@H]4CC[C@H]([C@H](C)CCC(=O)Nc5nc6c(C)cccc6s5)[C@@]4(C)CC[C@@H]3[C@@]1(C)C2` yielded a 50% effective concentration (EC50) of 43900 nM.

In turn, `CC(=O)n1cnc2c1C(C)(C)C1=CC[C@H]3[C@@H]4CC[C@H]([C@H](C)CCCCC(=O)N5CCOCC5)[C@@]4(C)CC[C@@H]3[C@@]1(C)C2` had an EC50 in series [1] of 1090 nM. Consider `CC(=O)n1ncc2c1C(C)(C)C1=CC[C@H]3[C@@H]4CC[C@H]([C@H](C)CCC(=O)O)[C@@]4(C)CC[C@@H]3[C@@]1(C)C2`, for which the Activity entry in series [2] was “Non-Toxic”. The compound further had an EC50 in series [1] of 2660 nM. Taken in the same sequence, the figures for `C[C@H](CCCCC(C)(C)O)[C@H]1CC[C@H]2[C@@H]3[C@@H](O)C=C4C(C)(C)[C@@H](O)CC[C@]4(C)[C@H]3CC[C@]12C` were “Toxic” and 410 nM. On to `CCCC(=O)n1cnc2c1C(C)(C)C1=CC[C@H]3[C@@H]4CC[C@H]([C@H](C)CCC(=O)N5CCOCC5)[C@@]4(C)CC[C@@H]3[C@@]1(C)C2`, for which the Activity result in series [2] is recorded as “Non-Toxic”. This compound had an EC50 in series [1] of 520 nM. In turn, `CC(=O)n1ncc2c1C(C)(C)C1=CC[C@H]3[C@@H]4CC[C@H]([C@H](C)CCC(=O)NCCN5CCOCC5)[C@@]4(C)CC[C@@H]3[C@@]1(C)C2` returned an EC50 in series [1] of 2730 nM. The compound `CCOC(=O)c1n[nH]c2c1C[C@@]1(C)C(=CC[C@H]3[C@@H]4CC[C@H]([C@H](C)CCC(=O)N5CCOCC5)[C@@]4(C)CC[C@@H]31)C2(C)C` yielded a half-maximal effective concentration (EC50) in series [1] of 530 nM. In the case of `C=CCC(O)(CC=C)CCC[C@@H](C)[C@H]1CC[C@H]2[C@@H]3[C@@H](O)C=C4C(C)(C)[C@@H](O)CC[C@]4(C)[C@H]3CC[C@]12C.Cl`, the Activity result in series [2] is “Toxic”. The half-maximal effective concentration (EC50) in series [1] is 430 nM. In the same order, the values of `CC(C)C(=O)n1cnc2c1C(C)(C)C1=CC[C@H]3[C@@H]4CC[C@H]([C@H](C)CCC(=O)N5CCOCC5)[C@@]4(C)CC[C@@H]3[C@@]1(C)C2` are “Non-Toxic” and 430 nM.

For the compound `CC(=O)n1ncc2c1C(C)(C)C1=CC[C@H]3[C@@H]4CC[C@H]([C@H](C)CCC(=O)NC5CCOCC5)[C@@]4(C)CC[C@@H]3[C@@]1(C)C2`, in series [1], the EC50 was determined as 480 nM.

In turn, `C[C@H](CCC(=O)N1CCOCC1)[C@H]1CC[C@H]2[C@@H]3CC=C4C(C)(C)c5nnsc5C[C@]4(C)[C@H]3CC[C@]12C` had an EC50 in series [1] of 830 nM.

For the compound `C[C@H](CCC(=O)N1CCOCC1)[C@H]1CC[C@H]2[C@@H]3CC=C4C(C)(C)c5nc(N)ncc5C[C@]4(C)[C@H]3CC[C@]12C`, the EC50 in series [1] stood at 8250 nM. Turning to `CC(=O)n1cnc2c1C(C)(C)C1=CC[C@H]3[C@@H]4CC[C@H]([C@H](C)C(=O)N5CCOCC5)[C@@]4(C)CC[C@@H]3[C@@]1(C)C2`, the response in series [1] was half-maximal at 410 nM (EC50).

`Cc1nc2c(s1)C(C)(C)C1=CC[C@H]3[C@@H]4CC[C@H]([C@H](C)CCC(=O)O)[C@@]4(C)CC[C@@H]3[C@@]1(C)C2`: in series [2], the Activity result is “Non-Toxic”. Further, it took 3370 nM to reach a half-maximal effect in series [1] (EC50). On to `CC(=O)n1cnc2c1C(C)(C)C1=CC[C@H]3[C@@H]4CC[C@H]([C@H](C)CCCC(=O)N5CCOCC5)[C@@]4(C)CC[C@@H]3[C@@]1(C)C2`, for which the EC50 in series [1] stood at 980 nM.

As for `C=C(C)C(=O)n1cnc2c1C(C)(C)C1=CC[C@H]3[C@@H]4CC[C@H]([C@H](C)CCC(=O)N5CCOCC5)[C@@]4(C)CC[C@@H]3[C@@]1(C)C2`, the Activity entry in series [2] is listed as “Non-Toxic”. In series [1], the half-maximal effective concentration (EC50) turned out to be 760 nM. For the compound `C[C@H](CCC(=O)O)[C@H]1CC[C@H]2[C@@H]3CC=C4C(C)(C)c5[nH]ncc5C[C@]4(C)[C@H]3CC[C@]12C`, the Activity entry in series [2] is “Non-Toxic”. The compound also yielded an EC50 in series [1] of 3990 nM.

Turning to `CNC(=O)CC[C@@H](C)[C@H]1CC[C@H]2[C@@H]3CC=C4C(C)(C)c5c(cnn5C(C)=O)C[C@]4(C)[C@H]3CC[C@]12C`, the EC50 in series [1] stood at 820 nM.

Turning to `CCC(=O)n1cnc2c1C(C)(C)C1=CC[C@H]3[C@@H]4CC[C@H]([C@H](C)CCC(=O)N5CCOCC5)[C@@]4(C)CC[C@@H]3[C@@]1(C)C2`, the Activity entry in series [2] is recorded as “Non-Toxic”. The response in series [1] was half-maximal at 650 nM (EC50). Take `CC(=O)n1ncc2c1C(C)(C)C1=CC[C@H]3[C@@H]4CC[C@H]([C@H](C)CCC(=O)N5CCCCC5)[C@@]4(C)CC[C@@H]3[C@@]1(C)C2`: the EC50 in series [1] is 1260 nM. Same read-out and setting: to `CCOC(=O)c1noc2c1C[C@@]1(C)C(=CC[C@H]3[C@@H]4CC[C@H]([C@H](C)CCC(=O)N5CCOCC5)[C@@]4(C)CC[C@@H]31)C2(C)C` belongs 1840 nM. As to `CCC(O)(CC)CCCC[C@@H](C)[C@H]1CC[C@H]2[C@@H]3[C@@H](O)C=C4C(C)(C)[C@@H](O)CC[C@]4(C)[C@H]3CC[C@]12C`, in series [2], the Activity entry is recorded as “Toxic”. Also, it took 410 nM to reach a half-maximal effect in series [1] (EC50). In the same order, the values of `C[C@H](CCCC(C)(C)O)[C@H]1CC[C@H]2[C@@H]3[C@@H](O)C=C4C(C)(C)[C@@H](O)CC[C@]4(C)[C@H]3CC[C@]12C` are “Toxic” and 410 nM. Taken in the same sequence, the figures for `CCC(O)(CC)CCC[C@@H](C)[C@H]1CC[C@H]2[C@@H]3[C@@H](O)C=C4C(C)(C)[C@@H](O)CC[C@]4(C)[C@H]3CC[C@]12C` were “Toxic” and 410 nM.

In series [1], `CC(=O)n1ncc2c1C(C)(C)C1=CC[C@H]3[C@@H]4CC[C@H]([C@H](C)CCC(=O)Nc5ncc(C)s5)[C@@]4(C)CC[C@@H]3[C@@]1(C)C2` had an EC50 of 12600 nM. Regarding `CC(=O)n1ncc2c1C(C)(C)C1=CC[C@H]3[C@@H]4CC[C@H]([C@H](C)CCC(=O)Nc5ncc([N+](=O)[O-])s5)[C@@]4(C)CC[C@@H]3[C@@]1(C)C2`, the EC50 in series [1] was 4800 nM. For `CCNC(=O)CC[C@@H](C)[C@H]1CC[C@H]2[C@@H]3CC=C4C(C)(C)c5c(cnn5C(C)=O)C[C@]4(C)[C@H]3CC[C@]12C`, the midpoint of the response in series [1], the EC50, lay at 1630 nM. On the same count and under the same terms, under `CC(=O)n1ncc2c1C(C)(C)C1=CC[C@H]3[C@@H]4CC[C@H]([C@H](C)CCC(=O)Nc5ccc(C)cc5)[C@@]4(C)CC[C@@H]3[C@@]1(C)C2` stands 5410 nM. As to `CC(=O)n1cnc2c1C(C)(C)C1=CC[C@H]3[C@@H]4CC[C@H]([C@H](C)CC(=O)N5CCOCC5)[C@@]4(C)CC[C@@H]3[C@@]1(C)C2`, in series [1], the EC50 was 280 nM. For `CC(=O)n1ncc2c1C(C)(C)C1=CC[C@H]3[C@@H]4CC[C@H]([C@H](C)CCC(=O)Nc5ccccc5C)[C@@]4(C)CC[C@@H]3[C@@]1(C)C2`, the concentration giving a half-maximal response (EC50) in series [1] is 4470 nM. `CC(=O)N1CCC(NC(=O)CC[C@@H](C)[C@H]2CC[C@H]3[C@@H]4CC=C5C(C)(C)c6c(cnn6C(C)=O)C[C@]5(C)[C@H]4CC[C@]23C)CC1` displayed an EC50 in series [1] of 430 nM. Still for that read-out and setting: to `Cc1nc2c(o1)C(C)(C)C1=CC[C@H]3[C@@H]4CC[C@H]([C@H](C)CCC(=O)N5CCOCC5)[C@@]4(C)CC[C@@H]3[C@@]1(C)C2` belongs 28100 nM; to `CC(=O)n1ncc2c1C(C)(C)C1=CC[C@H]3[C@@H]4CC[C@H]([C@H](C)CCC(=O)Nc5nc6ccccc6s5)[C@@]4(C)CC[C@@H]3[C@@]1(C)C2`, 31400 nM.
